The values below come from paper PMC9785202, “Changes in Disposition of Ezetimibe and Its Active Metabolites Induced by Impaired Hepatic Function: The Influence of Enzyme and Transporter Activities” (Pharmaceutics, 2022).

Where two headings read alike, the source gives them in different places.

Data set [1] addresses T1, OATP1B3 (Homo sapiens, UniProt Q9NPD5).
T1 sequence (Q9NPD5 1-702): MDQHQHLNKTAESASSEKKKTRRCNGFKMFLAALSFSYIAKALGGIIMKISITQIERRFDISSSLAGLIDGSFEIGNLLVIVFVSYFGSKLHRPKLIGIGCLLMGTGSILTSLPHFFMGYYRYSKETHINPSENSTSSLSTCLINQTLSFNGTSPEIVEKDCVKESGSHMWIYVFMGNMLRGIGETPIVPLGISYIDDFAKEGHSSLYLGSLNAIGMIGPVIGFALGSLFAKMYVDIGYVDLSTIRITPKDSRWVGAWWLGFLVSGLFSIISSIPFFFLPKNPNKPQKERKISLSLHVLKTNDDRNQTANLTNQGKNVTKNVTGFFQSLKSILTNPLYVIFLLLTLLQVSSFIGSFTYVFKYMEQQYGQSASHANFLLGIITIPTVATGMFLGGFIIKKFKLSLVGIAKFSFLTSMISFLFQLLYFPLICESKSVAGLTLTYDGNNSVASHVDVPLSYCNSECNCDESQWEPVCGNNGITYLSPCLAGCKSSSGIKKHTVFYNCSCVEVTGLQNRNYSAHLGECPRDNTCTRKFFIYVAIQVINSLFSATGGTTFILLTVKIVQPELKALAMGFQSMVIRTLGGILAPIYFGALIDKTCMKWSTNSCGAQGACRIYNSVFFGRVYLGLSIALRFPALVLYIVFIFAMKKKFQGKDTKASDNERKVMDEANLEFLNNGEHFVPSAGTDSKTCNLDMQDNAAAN
The experiment in a line: Inhibition of OATP1B3-mediated uptake in OATP1B3-transfected HEK293 cells by bile acids and rifampicin.

Another data set relates to UGTs. Briefly: Inhibition of EZE glucuronidation by bile acids in rat liver S9. It is filed as in vitro ADME. To be noted: liver S9 fractions, pH 7.4, probe EZE (ezetimibe), 3 μM; formation of EZE-Ph; rat liver S9, 3 μM EZE, bile acids up to 100 μM; read-out: inhibition of EZE-Ph generation. The method, then:
To evaluate the effect of hepatic impairment on the hepatic metabolism of EZE, 0.3 μM, 3 μM, and 30 μM EZE were incubated with rat liver S9 fractions (2 mg of protein/mL) at 37 °C for 60 min in the Tris-HCl-buffered system (100 mM, pH 7.4), consisting of UDPGA (1 mM), MgCl2 (10 mM), and alamethicin (25 μg/mL). To investigate the effect of bile acids on the metabolism of EZE in the liver, 3 μM EZE was incubated with rat or human liver S9 fractions (2 mg of protein/mL) at 37 °C for 60 min in the Tris-HCl-buffered system with or without bile acids at 1, 10, and 100 μM. The total volume of the incubation system was 100 μL. The reactions were terminated by adding 100 μL of ice-cold acetonitrile. Samples were stored at −20 °C until analysis. EZE and EZE-Ph were detected by liquid chromatography with tandem mass spectrometry (LC-MS/MS).

The subject of another data set is rat primary hepatocytes. The experiment in a line: Inhibition of EZE-Ph uptake into rat primary hepatocytes by bile acids and rifampicin. As to conditions: 10 μM EZE-Ph, 10 min.
The conditions of data set [2]: patients with moderate CLD; cited from earlier work.
Data set [3] concerns the target T1, OATP1B3.

Experimental for rat primary hepatocytes: Rat primary hepatocytes were isolated from male SD rats as previously described [34]. Fresh rat hepatocytes (120,000 per well) were cultured in Williams’ E medium (containing 0.1 μM dexamethasone, 5% fetal bovine serum, 1% penicillin G/streptomycin, 1% GlutaMAX-I, and 1% insulin–transferrin–selenium) on collagen I-coated 48-well plates. Rat hepatocytes cultured for 4 h under a carbogen atmosphere were directly used for uptake assays.
The hepatocytes were rinsed three times with HBSS (37 °C) and equilibrated in HBSS for 10 min. […] After 10 min of incubation, cells were quickly washed three times with ice-cold HBSS and then lysed by the addition of 300 μL of purified water. The protein content was measured using the BCA protein assay kit. EZE and EZE-Ph were analyzed by LC-MS/MS.
The rates of substrate uptake were normalized using the protein contents of cell lysates.

As a reminder, the IC50 is the concentration that inhibits the measured activity by half. A high value points to a need for much substance. Take `C[C@H](CCC(=O)NCC(=O)O)[C@H]1CC[C@H]2[C@@H]3[C@H](O)C[C@@H]4C[C@H](O)CC[C@]4(C)[C@H]3C[C@H](O)[C@]12C` [GCA, glycocholic acid]: at OATP1B3 [1], half-maximal inhibition (IC50) was put at 79.7 µM. In addition, the inhibition at 60 min in the data set on UGTs is < 40%. Besides, the “EZE-Ph uptake by rat hepatocytes in the presence of inhibitor” value is 109% with rat primary hepatocytes (inhibitor 1 μM), 64.1% in the data set on rat primary hepatocytes (inhibitor 10 μM) and 16.3% in the data set with rat primary hepatocytes (inhibitor 100 μM).
For `C=CCN1CC[C@]23c4c5ccc(O)c4O[C@H]2C(=O)CC[C@@]3(O)[C@H]1C5` [Naloxone], the decrease of clearance result in data set [2] is given as “over 50%”.
Compound `C[C@H](CCC(=O)NCCS(=O)(=O)O)[C@H]1CC[C@H]2[C@@H]3[C@H](O)C[C@@H]4C[C@H](O)CC[C@]4(C)[C@H]3C[C@H](O)[C@]12C` [TCA, taurocholic acid] displayed an IC50 at OATP1B3 [1] of 93.1 µM. In addition, the inhibition at 60 min in the data set with UGTs was < 40%. Moreover, the “EZE-Ph uptake by rat hepatocytes in the presence of inhibitor” value with rat primary hepatocytes (inhibitor 1 μM) was determined as 94.1%; with rat primary hepatocytes (inhibitor 100 μM) it was 13.9%.
`C[C@H](CCC(=O)NCCS(=O)(=O)O)[C@H]1CC[C@H]2[C@@H]3[C@H](O)C[C@@H]4C[C@H](O)CC[C@]4(C)[C@H]3CC[C@]12C` [TCDCA, taurochenodeoxycholic acid] had an IC50 against OATP1B3 [3] of 7.94 µM.
